From US5371070A, “Bicyclic GnRH antagonists and a method for regulating the secretion of gonadotropins” (The Salk Institute for Biological Studies, priority 1992, dated 1994) come the findings set out here.

This test relates to ovulation in mature female Sprague-Dawley rats. Briefly: rat anti-ovulation assay (in vivo). The following applies: for Rats Ovulating: injected about noon on day of proestrus, rats ovulating/rats treated. The text has this: These improved bicyclic GnRH antagonists are generally characterized by a substantial ability to suppress the secretion of LH in a standard rat pituitary cell assay when administered together with a concentration of 3 nanomolar GnRH, the details of which assay are set forth in Rivier and Vale, Life Sciences, 23, 869-876 (1978). By substantial ability is meant that, at a concentration of GnRH antagonist to GnRH of about 2/1 or less, the amount of LH secreted is reduced by 50% (IDR50). Moreover, when tested in vivo in the standard rat anti-ovulation assay (Corbin et al. Endocrine Res. Commun., 2, 1 (1975)), these GnRH antagonists show complete blockage of ovulation when administered at about 200 μg or less per kilogram of body weight.
In vivo testing determines effectiveness to prevent ovulation in female rats. In this test, a specified number of mature female Sprague-Dawley rats, e.g. usually five to ten, each having a body weight from about 225 to 250 grams, is injected with a specified microgram dosage of peptide in either saline or bacteriostatic water at about noon on the day of proestrus. Proestrus is the afternoon […]. A separate female rat group is used as a control to which the peptide is not administered. Each of the control female rats ovulates on the evening of proestrus, and the number of the treated rats which ovulate is recorded. The results are set forth in the following Table A, wherein the dosages stated are in micrograms per rat.

Positions of bridges follow the written chain, without caps; N, C: chain ends. Non-standard residues stand in square brackets, D forms with d. Residues, ends and D or L forms follow the SMILES beside them. Phe(4-Cl) = N[C@@H](Cc1ccc(Cl)cc1)C(=O)O; dPhe(4-Cl) = N[C@H](Cc1ccc(Cl)cc1)C(=O)O; 2Nal = N[C@@H](Cc1ccc2ccccc2c1)C(=O)O; d2Nal = N[C@H](Cc1ccc2ccccc2c1)C(=O)O; d3Pal = N[C@H](Cc1cccnc1)C(=O)O; Orn = NCCC[C@H](N)C(=O)O; Dab = NCC[C@H](N)C(=O)O; Dap = NC[C@H](N)C(=O)O; βAla = NCCC(=O)O; Sar = CNCC(=O)O

Turning to `CC(=O)N[C@H](Cc1ccc2ccccc2c1)C(=O)N[C@H](Cc1ccc(Cl)cc1)C(=O)N[C@H](Cc1cccnc1)C(=O)N[C@H]1CC(=O)NC[C@@H](C(N)=O)NC(=O)[C@@H]2CCCN2C(=O)[C@@H]2CCNC(=O)[C@H](CCCNC(=N)N)NC(=O)CC[C@H](NC1=O)C(=O)N[C@H](CCCNC(=N)N)C(=O)N[C@@H](CC(C)C)C(=O)N2` [Peptide 1, (Cyclo 4-10,5,5'-8)[Ac-β-D-2NAL^1, (4Cl)D--Phe^2, D-3PAL^3, Asp^4, Glu^5 (Arg), D--Arg^6, Dbu^8, Dpr^10]-GnRH] (Ac-[d2Nal][dPhe(4-Cl)][d3Pal]DE[dR]L[Dab]P[Dap]-NH2; lactam 4-10; linker 5-8 via R), the “effectiveness to prevent ovulation of female rats” value (at a very low dosage) is reported as “significantly effective”. For the same molecule, the “Rats Ovulating” value reads like this: (dosage 1.0 micrograms per rat) 2/11; (dosage 2.5 micrograms per rat) 0/4. For the same molecule, the “dose considered totally effective to prevent ovulation” value (female rats) is recorded as “about 50 micrograms per Kg of body weight”. Under “female rats, stated as likely”, the “dose at which it should likely be effective to prevent ovulation” value is “about 5 μg/Kg”.

In the case of `CC(=O)N[C@H](Cc1ccc2ccccc2c1)C(=O)N[C@H](Cc1ccc(Cl)cc1)C(=O)N[C@H](Cc1cccnc1)C(=O)N[C@H]1CC(=O)NC[C@@H](C(N)=O)NC(=O)[C@@H]2CCCN2C(=O)[C@@H]2CCNC(=O)CNC(=O)CC[C@H](NC1=O)C(=O)N[C@H](CCCNC(=N)N)C(=O)N[C@@H](CC(C)C)C(=O)N2` [Peptide 2] (Ac-[d2Nal][dPhe(4-Cl)][d3Pal]DE[dR]L[Dab]P[Dap]-NH2; lactam 4-10; linker 5-8 via G), the “Rats Ovulating” value by setting is: (dosage 2.5 micrograms per rat) 6/8; (dosage 5 micrograms per rat) 2/8; (dosage 10 micrograms per rat) 1/6; (dosage 25 micrograms per rat) 0/3.

With `CC(=O)N[C@H](Cc1ccc2ccccc2c1)C(=O)N[C@H](Cc1ccc(Cl)cc1)C(=O)N[C@H](Cc1cccnc1)C(=O)N[C@H]1CC(=O)NC[C@@H](C(N)=O)NC(=O)[C@@H]2CCCN2C(=O)[C@@H]2CCNC(=O)CNC(=O)C[C@H](NC1=O)C(=O)N[C@H](CCCNC(=N)N)C(=O)N[C@@H](CC(C)C)C(=O)N2` [Peptide 3] (Ac-[d2Nal][dPhe(4-Cl)][d3Pal]DD[dR]L[Dab]P[Dap]-NH2; lactam 4-10; linker 5-8 via G), the “Rats Ovulating” value was 4/6 (dosage 10 micrograms per rat) and 0/5 (dosage 25 micrograms per rat).

Take `CC(=O)N[C@H](Cc1ccc2ccccc2c1)C(=O)N[C@H](Cc1ccc(Cl)cc1)C(=O)N[C@H](Cc1cccnc1)C(=O)N[C@H]1CC(=O)NC[C@@H](C(N)=O)NC(=O)[C@@H]2CCCN2C(=O)[C@@H]2CCNC(=O)CCNC(=O)C[C@H](NC1=O)C(=O)N[C@H](CCCNC(=N)N)C(=O)N[C@@H](CC(C)C)C(=O)N2` [Peptide 4] (Ac-[d2Nal][dPhe(4-Cl)][d3Pal]DD[dR]L[Dab]P[Dap]-NH2; lactam 4-10; linker 5-8 via βAla): the “Rats Ovulating” value reads like this: (dosage 2.5 micrograms per rat) 9/14; (dosage 5 micrograms per rat) 7/10; (dosage 10 micrograms per rat) 4/5.

With `CC(=O)N[C@H](Cc1ccc2ccccc2c1)C(=O)N[C@H](Cc1ccc(Cl)cc1)C(=O)N[C@H](Cc1cccnc1)C(=O)N[C@H]1CC(=O)NC[C@@H](C(N)=O)NC(=O)[C@@H]2CCCN2C(=O)[C@@H]2CCNC(=O)CN(C)C(=O)CC[C@H](NC1=O)C(=O)N[C@H](CCCNC(=N)N)C(=O)N[C@@H](CC(C)C)C(=O)N2` [Peptide 5] (Ac-[d2Nal][dPhe(4-Cl)][d3Pal]DE[dR]L[Dab]P[Dap]-NH2; lactam 4-10; linker 5-8 via Sar), where the note is “dosage 10 micrograms per rat”, the “Rats Ovulating” value is given as 4/9.

Turning to `CC(=O)N[C@H](Cc1ccc2ccccc2c1)C(=O)N[C@H](Cc1ccc(Cl)cc1)C(=O)N[C@H](Cc1cccnc1)C(=O)N[C@H]1CC(=O)NC[C@@H](C(N)=O)NC(=O)[C@@H]2CCCN2C(=O)[C@@H]2CNC(=O)[C@H](Cc3ccccc3)NC(=O)CC[C@H](NC1=O)C(=O)N[C@H](CCCNC(=N)N)C(=O)N[C@@H](CC(C)C)C(=O)N2` [Peptide 6] (Ac-[d2Nal][dPhe(4-Cl)][d3Pal]DE[dR]L[Dap]P[Dap]-NH2; lactam 4-10; linker 5-8 via F), under “dosage 10 micrograms per rat”, the “Rats Ovulating” value is given as 6/8.

For the molecule `CC(=O)N[C@H](Cc1ccc2ccccc2c1)C(=O)N[C@H](Cc1ccc(Cl)cc1)C(=O)N[C@H](Cc1cccnc1)C(=O)N[C@H]1CC(=O)NC[C@@H](C(N)=O)NC(=O)[C@@H]2CCCN2C(=O)[C@@H]2CCNC(=O)[C@H](Cc3ccccc3)NC(=O)CC[C@H](NC1=O)C(=O)N[C@H](CCCNC(=N)N)C(=O)N[C@@H](CC(C)C)C(=O)N2` [Peptide 7] (Ac-[d2Nal][dPhe(4-Cl)][d3Pal]DE[dR]L[Dab]P[Dap]-NH2; lactam 4-10; linker 5-8 via F), the “Rats Ovulating” value (dosage 1.0 micrograms per rat) is on record as 4/7, the “Rats Ovulating” value (dosage 2.5 micrograms per rat) is listed as 3/10, the “Rats Ovulating” value (dosage 5 micrograms per rat) is recorded as 1/8 and the “Rats Ovulating” value (dosage 10 micrograms per rat) was 0/9.

On to `CC(=O)N[C@H](Cc1ccc2ccccc2c1)C(=O)N[C@H](Cc1ccc(Cl)cc1)C(=O)N[C@H](Cc1cccnc1)C(=O)N[C@H]1CC(=O)NC[C@@H](C(N)=O)NC(=O)[C@@H]2CCCN2C(=O)[C@@H]2CCCNC(=O)[C@H](Cc3ccccc3)NC(=O)CC[C@H](NC1=O)C(=O)N[C@H](CCCNC(=N)N)C(=O)N[C@@H](CC(C)C)C(=O)N2` [Peptide 8] (Ac-[d2Nal][dPhe(4-Cl)][d3Pal]DE[dR]L[Orn]P[Dap]-NH2; lactam 4-10; linker 5-8 via F), for which the “Rats Ovulating” value reads like this: (dosage 10 micrograms per rat) 5/5; (dosage 25 micrograms per rat) 0/8.

Consider `CC(=O)N[C@H](Cc1ccc2ccccc2c1)C(=O)N[C@H](Cc1ccc(Cl)cc1)C(=O)N[C@H](Cc1cccnc1)C(=O)N[C@H]1CC(=O)NC[C@@H](C(N)=O)NC(=O)[C@@H]2CCCN2C(=O)[C@@H]2CCNC(=O)[C@H](Cc3ccccc3)NC(=O)C[C@H](NC1=O)C(=O)N[C@H](CCCNC(=N)N)C(=O)N[C@@H](CC(C)C)C(=O)N2` [Peptide 9] (Ac-[d2Nal][dPhe(4-Cl)][d3Pal]DD[dR]L[Dab]P[Dap]-NH2; lactam 4-10; linker 5-8 via F), for which the “Rats Ovulating” value (dosage 10 micrograms per rat) is reported as 0/4.

With `CC(=O)N[C@H](Cc1ccc2ccccc2c1)C(=O)N[C@H](Cc1ccc(Cl)cc1)C(=O)N[C@H](Cc1cccnc1)C(=O)N[C@H]1CC(=O)NC[C@@H](C(N)=O)NC(=O)[C@@H]2CCCN2C(=O)[C@@H]2CCCNC(=O)[C@H](Cc3ccccc3)NC(=O)C[C@H](NC1=O)C(=O)N[C@H](CCCNC(=N)N)C(=O)N[C@@H](CC(C)C)C(=O)N2` [Peptide 10] (Ac-[d2Nal][dPhe(4-Cl)][d3Pal]DD[dR]L[Orn]P[Dap]-NH2; lactam 4-10; linker 5-8 via F), the “Rats Ovulating” value runs as follows: (dosage 2.5 micrograms per rat) 6/6; (dosage 5 micrograms per rat) 0/4.

Turning to `CC(=O)N[C@H](Cc1ccc2ccccc2c1)C(=O)N[C@H](Cc1ccc(Cl)cc1)C(=O)N[C@H](Cc1cccnc1)C(=O)N[C@H]1CC(=O)NC[C@@H](C(N)=O)NC(=O)[C@@H]2CCCN2C(=O)[C@@H]2CCNC(=O)[C@H](Cc3ccc4ccccc4c3)NC(=O)CC[C@H](NC1=O)C(=O)N[C@H](CCCNC(=N)N)C(=O)N[C@@H](CC(C)C)C(=O)N2` [Peptide 11] (Ac-[d2Nal][dPhe(4-Cl)][d3Pal]DE[dR]L[Dab]P[Dap]-NH2; lactam 4-10; linker 5-8 via 2Nal), the “Rats Ovulating” value (dosage 5 micrograms per rat) is 1/7 and the “Rats Ovulating” value (dosage 10 micrograms per rat) was 0/4.

Consider `CC(=O)N[C@H](Cc1ccc2ccccc2c1)C(=O)N[C@H](Cc1ccc(Cl)cc1)C(=O)N[C@H](Cc1cccnc1)C(=O)N[C@H]1CC(=O)NC[C@@H](C(N)=O)NC(=O)[C@@H]2CCCN2C(=O)[C@@H]2CCNC(=O)[C@H](Cc3c[nH]cn3)NC(=O)CC[C@H](NC1=O)C(=O)N[C@H](CCCNC(=N)N)C(=O)N[C@@H](CC(C)C)C(=O)N2` [Peptide 12] (Ac-[d2Nal][dPhe(4-Cl)][d3Pal]DE[dR]L[Dab]P[Dap]-NH2; lactam 4-10; linker 5-8 via H), for which the “Rats Ovulating” value reads like this: (dosage 1.0 micrograms per rat) 4/4; (dosage 2.5 micrograms per rat) 3/8.

For the molecule `CC(=O)N[C@H](Cc1ccc2ccccc2c1)C(=O)N[C@H](Cc1ccc(Cl)cc1)C(=O)N[C@H](Cc1cccnc1)C(=O)N[C@H]1CC(=O)NC[C@@H](C(N)=O)NC(=O)[C@@H]2CCCN2C(=O)[C@@H]2CCNC(=O)[C@H](Cc3ccc(Cl)cc3)NC(=O)CC[C@H](NC1=O)C(=O)N[C@H](CCCNC(=N)N)C(=O)N[C@@H](CC(C)C)C(=O)N2` [Peptide 14] (Ac-[d2Nal][dPhe(4-Cl)][d3Pal]DE[dR]L[Dab]P[Dap]-NH2; lactam 4-10; linker 5-8 via Phe(4-Cl)), the “Rats Ovulating” value runs as follows: (dosage 2.5 micrograms per rat) 3/4; (dosage 5 micrograms per rat) 0/6.
